{"source": "ChEMBL document CHEMBL5346933", "about": "“Design and synthesis of novel arylurea derivatives of aryloxy(1-phenylpropyl) alicyclic diamines with antimicrobial activity against multidrug-resistant Gram-positive bacteria” (Eur J Med Chem, 2023)", "key": {"Staphylococcus aureus [1]": {"tested_on": "Staphylococcus aureus", "assay": "Antibacterial activity against methicillin-susceptible Staphylococcus aureus ATCC 25923 assessed as inhibition of bacterial growth incubated for 18 hrs by broth microdilution method", "format": "functional"}, "[2]": {"tested_on": "Staphylococcus epidermidis", "assay": "Antibacterial activity against methicillin-susceptible Staphylococcus epidermidis ATCC 12228 assessed as inhibition of bacterial growth incubated for 18 hrs by broth microdilution method", "format": "functional"}, "Streptococcus pneumoniae": {"tested_on": "Streptococcus pneumoniae", "assay": "Antibacterial activity against Streptococcus pneumoniae ATCC 49619 assessed as inhibition of bacterial growth incubated for 18 hrs by broth microdilution method", "format": "functional"}, "Staphylococcus aureus [3]": {"tested_on": "Staphylococcus aureus", "assay": "Antibacterial activity against methicillin-resistant Staphylococcus aureus clinical strain 19449 assessed as inhibition of bacterial growth incubated for 18 hrs by broth microdilution method", "format": "functional"}, "Staphylococcus aureus [4]": {"tested_on": "Staphylococcus aureus", "assay": "Antibacterial activity against biofilm producer Staphylococcus aureus RN450 assessed as inhibition of bacterial growth incubated for 18 hrs by broth microdilution method", "format": "functional"}, "Enterococcus faecium [5]": {"tested_on": "Enterococcus faecium", "assay": "Antibacterial activity against vancomycin-resistant Enterococcus faecium assessed as inhibition of bacterial growth incubated for 18 hrs by broth microdilution method", "format": "functional"}, "[6]": {"assay": "Cytotoxicity against human BJ cells assessed as cell viability at 25 ug/ml incubated for 24 hrs by MTT assay", "format": "toxicity, cell-based", "settings": "at 25 µg/mL, read-out: Activity"}, "Enterococcus faecalis [7]": {"tested_on": "Enterococcus faecalis", "assay": "Antibacterial activity against Enterococcus faecalis ATCC 29212 assessed as inhibition of bacterial growth measured for 18 hrs by OD600 based analysis", "format": "functional, organism-based"}, "Enterococcus faecium [8]": {"tested_on": "Enterococcus faecium", "assay": "Antibacterial activity against vancomycin-resistant Enterococcus faecium assessed as inhibition of bacterial growth measured for 18 hrs by OD600 based analysis", "format": "functional, organism-based"}, "Staphylococcus aureus [9]": {"tested_on": "Staphylococcus aureus", "assay": "Bactericidal activity against methicillin-resistant Staphylococcus aureus clinical strain 19449 assessed as reduction in colony forming units incubated for 18 hrs in broth followed by culturing on agar plate for 24 hrs", "format": "functional", "settings": "time 42 hrs, read-out: MBC99.9"}, "Staphylococcus aureus [10]": {"tested_on": "Staphylococcus aureus", "assay": "Bactericidal activity against vancomycin-intermediate Staphylococcus aureus ATCC 700699 assessed as reduction in colony forming units incubated for 18 hrs in broth followed by culturing on agar plate for 24 hrs", "format": "functional", "settings": "time 42 hrs, read-out: MBC99.9"}, "[11]": {"tested_on": "Staphylococcus epidermidis", "assay": "Bactericidal activity against linezolid-resistant Staphylococcus epidermidis NIL 4399/19 assessed as reduction in colony forming units incubated for 18 hrs in broth followed by culturing on agar plate for 24 hrs", "format": "functional", "settings": "time 42 hrs, read-out: MBC99.9"}, "Enterococcus faecalis [12]": {"tested_on": "Enterococcus faecalis", "assay": "Bactericidal activity against Enterococcus faecalis ATCC 29212 assessed as reduction in colony forming units incubated for 18 hrs in broth followed by culturing on agar plate for 24 hrs", "format": "functional", "settings": "time 42 hrs, read-out: MBC99.9"}, "Staphylococcus aureus [13]": {"tested_on": "Staphylococcus aureus", "assay": "Ratio of MBC to MIC for methicillin-susceptible Staphylococcus aureus ATCC 25923", "format": "functional"}, "Enterococcus faecalis [14]": {"tested_on": "Enterococcus faecalis", "assay": "Ratio of MBC to MIC for Enterococcus faecalis ATCC 29212", "format": "functional"}, "Enterococcus faecium [15]": {"tested_on": "Enterococcus faecium", "assay": "Ratio of MBC to MIC for vancomycin-resistant Enterococcus faecium clinical strain", "format": "functional"}, "Staphylococcus aureus [16]": {"tested_on": "Staphylococcus aureus", "assay": "Bactericidal activity against vancomycin-intermediate Staphylococcus aureus ATCC 700699 assessed as log reduction of bacterial colony forming units at 4 times MIC incubated for 8 hrs in broth followed by culturing on agar plate for 24 hrs by time-killing assay", "format": "functional", "settings": "time 32 hrs"}, "[17]": {"assay": "Intrinsic clearance in rat liver microsomes at 0.4 mg/ml preincubated for 10 mins followed by NADPH-regenerating system addition for 60 mins and measured per mg of protein by UPLC-MS analysis", "format": "ADME, Microsome", "settings": "time 70 min, read-out: CLH"}, "Cell membrane [18]": {"tested_on": "Cell membrane", "assay": "Induction of cell membrane depolarization in Staphylococcus aureus Newman assessed as bacterial cells with polarized membrane potential at 2XMIC incubated for 25 to 30 mins by DiOC2(3) probe based flow cytometry (reference value: 94.3%)", "format": "subcellular", "settings": "time 25-30 min"}, "Cell membrane [19]": {"tested_on": "Cell membrane", "assay": "Induction of cell membrane depolarization in Staphylococcus aureus Newman assessed as bacterial cells with depolarized membrane potential at 4 times MIC incubated for 25 to 30 mins by DiOC2(3) probe based flow cytometry (reference value: 1.6%)", "format": "subcellular", "settings": "time 25-30 min"}, "Cell membrane [20]": {"tested_on": "Cell membrane", "assay": "Induction of cell membrane depolarization in methicillin-resistant Staphylococcus aureus 19449 assessed as bacterial cells with depolarized membrane potential at MIC incubated for 25 to 30 mins by DiOC2(3) probe based flow cytometry (reference value: 0.7%)", "format": "subcellular", "settings": "time 25-30 min"}, "Cell membrane [21]": {"tested_on": "Cell membrane", "assay": "Induction of cell membrane depolarization in methicillin-resistant Staphylococcus aureus 19449 assessed as bacterial cells with depolarized membrane potential at 4 times MIC incubated for 25 to 30 mins by DiOC2(3) probe based flow cytometry (reference value: 0.7%)", "format": "subcellular", "settings": "time 25-30 min"}, "Cell membrane [22]": {"tested_on": "Cell membrane", "assay": "Induction of cell membrane depolarization in vancomycin-resistant Enterococcus faecium clinical strain assessed as bacterial cells with polarized membrane potential at MIC incubated for 25 to 30 mins by DiOC2(3) probe based flow cytometry (reference value: 96.8%)", "format": "subcellular", "settings": "time 25-30 min"}, "Cell membrane [23]": {"tested_on": "Cell membrane", "assay": "Induction of cell membrane depolarization in vancomycin-resistant Enterococcus faecium clinical strain assessed as bacterial cells with depolarized membrane potential at MIC incubated for 25 to 30 mins by DiOC2(3) probe based flow cytometry (reference value: 0.8%)", "format": "subcellular", "settings": "time 25-30 min"}, "Cell membrane [24]": {"tested_on": "Cell membrane", "assay": "Induction of cell membrane depolarization in vancomycin-resistant Enterococcus faecium clinical strain assessed as bacterial cells with polarized membrane potential at 2XMIC incubated for 25 to 30 mins by DiOC2(3) probe based flow cytometry (reference value: 96.8%)", "format": "subcellular", "settings": "time 25-30 min"}, "Cell membrane [25]": {"tested_on": "Cell membrane", "assay": "Induction of cell membrane depolarization in vancomycin-resistant Enterococcus faecium clinical strain assessed as bacterial cells with depolarized membrane potential at 2XMIC incubated for 25 to 30 mins by DiOC2(3) probe based flow cytometry (reference value: 0.8%)", "format": "subcellular", "settings": "time 25-30 min"}, "Cell membrane [26]": {"tested_on": "Cell membrane", "assay": "Induction of cell membrane depolarization in vancomycin-resistant Enterococcus faecium clinical strain assessed as bacterial cells with polarized membrane potential at 4 times MIC incubated for 25 to 30 mins by DiOC2(3) probe based flow cytometry (reference value: 96.8%)", "format": "subcellular", "settings": "time 25-30 min"}, "Cell membrane [27]": {"tested_on": "Cell membrane", "assay": "Induction of cell membrane depolarization in Staphylococcus aureus Newman assessed as ratio of red to green fluorescence intensity at MIC incubated for 25 to 30 mins by DiOC2(3) probe based flow cytometry", "format": "subcellular", "settings": "time 25-30 min"}, "Cell membrane [28]": {"tested_on": "Cell membrane", "assay": "Induction of cell membrane depolarization in vancomycin-resistant Enterococcus faecium clinical strain assessed as ratio of red to green fluorescence intensity at MIC incubated for 25 to 30 mins by DiOC2(3) probe based flow cytometry", "format": "subcellular", "settings": "time 25-30 min"}}, "note": "Active and inactive are the calls of the source. No cut-off for these calls is given here.", "data": [{"smiles": "O=C(Nc1cccc(Cl)c1)NC1CCN(CCC(Oc2cccc(C(F)(F)F)c2)c2ccccc2)CC1", "note": "(racemic)", "values": [{"measurement": "MIC", "setting": "Staphylococcus aureus [1]", "result": 3.12, "unit": "mg/L"}, {"measurement": "MIC", "setting": "[2]", "result": 3.12, "unit": "mg/L"}, {"measurement": "MIC", "setting": "Streptococcus pneumoniae", "result": 6.25, "unit": "mg/L"}, {"measurement": "MIC", "setting": "Staphylococcus aureus [3]", "result": 0.78, "unit": "mg/L"}, {"measurement": "MIC", "setting": "Staphylococcus aureus [4]", "result": 1.56, "unit": "mg/L"}, {"measurement": "MIC", "setting": "Enterococcus faecium [5]", "result": 1.56, "unit": "mg/L"}, {"measurement": "viability at 24 h, 25 ug/ml", "setting": "[6]", "result": 97, "unit": "%"}, {"measurement": "Activity", "setting": "Enterococcus faecalis [7]", "result": "Active"}, {"measurement": "Activity", "setting": "Enterococcus faecium [8]", "result": "Active"}, {"measurement": "MBC", "setting": "Staphylococcus aureus [9]", "result": 3.12, "unit": "mg/L"}, {"measurement": "MBC", "setting": "Staphylococcus aureus [10]", "result": 12.5, "unit": "mg/L"}, {"measurement": "MBC", "setting": "[11]", "result": 6.25, "unit": "mg/L"}, {"measurement": "MBC", "setting": "Enterococcus faecalis [12]", "result": 6.25, "unit": "mg/L"}, {"measurement": "Ratio", "setting": "Staphylococcus aureus [13]", "result": 4}, {"measurement": "Ratio", "setting": "Enterococcus faecalis [14]", "result": 4}, {"measurement": "Ratio", "setting": "Enterococcus faecium [15]", "result": 4}, {"measurement": "Activity", "setting": "Staphylococcus aureus [16]", "result": 2, "unit": "log10CFU/ml"}, {"measurement": "microsomal CLint", "setting": "[17]", "result": 8.94, "unit": "µL/min/mg"}, {"measurement": "Activity", "setting": "Cell membrane [18]", "result": 0.1, "unit": "%"}, {"measurement": "Activity", "setting": "Cell membrane [19]", "result": 89.8, "unit": "%"}, {"measurement": "Activity", "setting": "Cell membrane [20]", "result": 91.6, "unit": "%"}, {"measurement": "Activity", "setting": "Cell membrane [21]", "result": 96.4, "unit": "%"}, {"measurement": "Activity", "setting": "Cell membrane [22]", "result": 59.3, "unit": "%"}, {"measurement": "Activity", "setting": "Cell membrane [23]", "result": 34.8, "unit": "%"}, {"measurement": "Activity", "setting": "Cell membrane [24]", "result": 0.3, "unit": "%"}, {"measurement": "Activity", "setting": "Cell membrane [25]", "result": 92.7, "unit": "%"}, {"measurement": "Activity", "setting": "Cell membrane [26]", "result": 1.5, "unit": "%"}, {"measurement": "Ratio", "setting": "Cell membrane [27]", "result": 0.27}, {"measurement": "Ratio", "setting": "Cell membrane [28]", "result": 0.2}]}]}
